# Laboratory results published in ChEMBL document CHEMBL1201862, “PubChem BioAssay data set” (2004).
#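 96-well plates; 48 h exposure; 5 concentrations. Endpoints by linear interpolation between flanking doses. Not reached: highest tested concentration assigned. GI50 = concentration required for 50% inhibition of growth.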 Activity calls are given as the source filed them. Cut-off read from the data, not from the text of the source: active = GI50 up to about 1.1 µM and inactive = higher.
# Assays:
# Assay in all cases: NCI anticancer screen, dose series, 48 h
# [1] = test system: KM-20L2
# [2] = test system: HOP-92
# [3] = test system: SK-MEL-5
# [4] = test system: UACC-62
# [5] = test system: ACHN
# [6] = test system: RPMI-8226
# [7] = test system: UACC-257
# [8] = test system: HOP-62
# [9] = test system: IGROV-1
# [10] = test system: SF-268
# [11] = test system: SNB-19
# [12] = test system: U-251
# [13] = test system: M14
# [14] = test system: K562
# [15] = test system: SF-539
# [16] = test system: XF498
# [17] = test system: LOX IMVI
# [18] = test system: OVCAR-5
# [19] = test system: RXF 393
# [20] = test system: COLO 205
# [21] = test system: DMS-273
# [22] = test system: HOP-18
# [23] = test system: OVCAR-4
# [24] = test system: HCC 2998
# [25] = test system: MOLT-4
# [26] = test system: OVCAR-3
# [27] = test system: RXF 631
# [28] = test system: HL-60
# [29] = test system: DMS-114
# [30] = test system: A549
# [31] = test system: SN12C
# [32] = test system: HT-29
# [33] = test system: SF-295
# [34] = test system: CCRF-CEM
# [35] = test system: LXFL 529
# [36] = test system: TK-10
# [37] = test system: SNB-75
# [38] = test system: NCI-H460
# [39] = test system: EKVX
# [40] = test system: Malme-3M
# [41] = test system: CAKI-1
# [42] = test system: SK-OV-3
# [43] = test system: KM12
# [44] = test system: NCI-H23
# [45] = test system: UO-31
# [46] = test system: 786-0
# [47] = test system: NCI-H226
# [48] = test system: HCT-15
# [49] = test system: A498
# [50] = test system: SK-MEL-2
# [51] = test system: SW-620
# [52] = test system: SK-MEL-28
# [53] = test system: NCI-H522
# [54] = test system: M19-MEL
# [55] = test system: OVCAR-8
# [56] = test system: SNB-78
# [57] = test system: HCT-116
# [58] = test system: DLD-1
smiles,measurement,setting,value
CC(C)N1CC2CC(CN(C(=O)c3ccccc3)C2)C1.[O-][Cl+3]([O-])([O-])O,GI50,[1],> 100 µM (inactive)
same,GI50,[2],> 100 µM (inactive)
same,GI50,[3],> 100 µM (inactive)
same,GI50,[4],> 100 µM (inactive)
same,GI50,[5],> 100 µM (inactive)
same,GI50,[6],> 100 µM (inactive)
same,GI50,[7],> 100 µM (inactive)
same,GI50,[8],> 100 µM (inactive)
same,GI50,[9],> 100 µM (inactive)
same,GI50,[10],> 100 µM (inactive)
same,GI50,[11],> 100 µM (inactive)
same,GI50,[12],> 100 µM (inactive)
same,GI50,[13],> 100 µM (inactive)
same,GI50,[14],> 100 µM (inactive)
same,GI50,[15],> 100 µM (inactive)
same,GI50,[16],> 100 µM (inactive)
same,GI50,[17],> 100 µM (inactive)
same,GI50,[18],> 100 µM (inactive)
same,GI50,[19],> 100 µM (inactive)
same,GI50,[20],> 100 µM (inactive)
same,GI50,[21],> 100 µM (inactive)
same,GI50,[22],> 100 µM (inactive)
same,GI50,[23],> 100 µM (inactive)
same,GI50,[24],> 100 µM (inactive)
same,GI50,[25],> 100 µM (inactive)
same,GI50,[26],> 100 µM (inactive)
same,GI50,[27],> 100 µM (inactive)
same,GI50,[28],> 100 µM (inactive)
same,GI50,[29],> 100 µM (inactive)
same,GI50,[30],> 100 µM (inactive)
same,GI50,[31],> 100 µM (inactive)
same,GI50,[32],> 100 µM (inactive)
same,GI50,[33],> 100 µM (inactive)
same,GI50,[34],> 100 µM (inactive)
same,GI50,[35],> 100 µM (inactive)
same,GI50,[36],> 100 µM (inactive)
same,GI50,[37],> 100 µM (inactive)
same,GI50,[38],> 100 µM (inactive)
same,GI50,[39],> 100 µM (inactive)
same,GI50,[40],> 100 µM (inactive)
same,GI50,[41],> 100 µM (inactive)
same,GI50,[42],> 100 µM (inactive)
same,GI50,[43],> 100 µM (inactive)
same,GI50,[44],> 100 µM (inactive)
same,GI50,[45],> 100 µM (inactive)
same,GI50,[46],> 100 µM (inactive)
same,GI50,[47],72.9 µM (inactive)
same,GI50,[48],> 100 µM
same,GI50,[49],> 100 µM (inactive)
same,GI50,[50],> 100 µM (inactive)
same,GI50,[51],> 100 µM (inactive)
same,GI50,[52],> 100 µM (inactive)
same,GI50,[53],> 100 µM (inactive)
same,GI50,[54],> 100 µM (inactive)
same,GI50,[55],> 100 µM (inactive)
Cn1c2ccccc2c2[nH]cc3nc4ccccc4c-3c21,GI50,[1],16.7 µM (inactive)
same,GI50,[2],27.2 µM (inactive)
same,GI50,[3],18.1 µM (inactive)
same,GI50,[4],18.5 µM (inactive)
same,GI50,[5],20.4 µM (inactive)
same,GI50,[6],19.2 µM (inactive)
same,GI50,[7],22.3 µM (inactive)
same,GI50,[8],> 100 µM (inactive)
same,GI50,[56],24.5 µM (inactive)
same,GI50,[9],18 µM (inactive)
same,GI50,[10],22.8 µM (inactive)
same,GI50,[11],26.1 µM (inactive)
same,GI50,[12],18.2 µM (inactive)
same,GI50,[13],17.9 µM (inactive)
same,GI50,[14],26.7 µM (inactive)
same,GI50,[15],18 µM (inactive)
same,GI50,[16],17.4 µM (inactive)
same,GI50,[17],21.3 µM (inactive)
same,GI50,[18],19.2 µM (inactive)
same,GI50,[19],16.1 µM (inactive)
same,GI50,[57],12.6 µM (inactive)
same,GI50,[20],16.9 µM (inactive)
same,GI50,[21],16.2 µM (inactive)
same,GI50,[23],15.6 µM (inactive)
same,GI50,[24],> 100 µM (inactive)
same,GI50,[25],23.8 µM (inactive)
same,GI50,[26],17.1 µM (inactive)
same,GI50,[27],29.5 µM (inactive)
same,GI50,[28],20.6 µM (inactive)
same,GI50,[29],22.9 µM (inactive)
same,GI50,[30],22.6 µM (inactive)
same,GI50,[31],23.5 µM (inactive)
same,GI50,[32],15.8 µM (inactive)
same,GI50,[33],22.1 µM (inactive)
same,GI50,[34],30.8 µM (inactive)
same,GI50,[35],25.2 µM (inactive)
same,GI50,[36],22.3 µM (inactive)
same,GI50,[37],19.5 µM (inactive)
same,GI50,[38],15.5 µM (inactive)
same,GI50,[39],9.71 µM (inactive)
same,GI50,[40],> 100 µM (inactive)
same,GI50,[41],25.1 µM (inactive)
same,GI50,[42],24.3 µM (inactive)
same,GI50,[43],17 µM (inactive)
same,GI50,[44],17.1 µM (inactive)
same,GI50,[58],> 100 µM (inactive)
same,GI50,[45],13 µM (inactive)
same,GI50,[46],> 100 µM (inactive)
same,GI50,[47],22.4 µM (inactive)
same,GI50,[48],19.9 µM
same,GI50,[49],18.7 µM (inactive)
same,GI50,[50],> 100 µM (inactive)
same,GI50,[51],24.7 µM (inactive)
same,GI50,[52],14.8 µM (inactive)
same,GI50,[53],13.5 µM (inactive)
same,GI50,[54],19.7 µM (inactive)
same,GI50,[55],20.3 µM (inactive)
